# Test results published in US7763612B2, “Therapeutic amine-arylsulfonamide conjugate compounds” (Algebra, Inc., priority 2006, dated 2010).
# Like-named read-outs stand apart in the source and are kept apart here.
# Experiments:
# Mice, CD1 males = test: Safety and toxicity dose-ranging study, observation for seizures and deaths after oral administration; format: in vivo, mouse; settings: CD1 male mice, p.o., doses up to 300 mg/kg, observed for one hour
# Procedure: Safety and Toxicity: Dose-ranging studies were performed to determine the range of safe doses for compound (1420). […] Mice, groups of 6 CD1 males each, were administered compound suspended in a 0.5% 4000-centipoise methyl cellulose vehicle at a volume of 10 mL/kg p.o. using a 22-gauge stainless steel mouse feeding tube and 1-mL syringe at doses up to 300 mg/kg.
# [1] = tested on: tetrabenazine-induced behavioral effects; test: Antitetrabenazine activity in the mouse (prevention of tetrabenazine-induced behavioral effects); format: in vivo; settings: for ED50: Mus musculus, ip, read-out: ED50 (mg/kg i.p.), antitetrabenazine activity
# Excerpt: Substances having an antidepressant action antagonize a number of the behavioral effects induced by tetrabenazine including locomotor activity, ptosis and hypothermia. Tetrabenazine-induced behavioral effects can be quantified using a composite index, X, where X=(1−ptosis score)/(activity score*[Temp., treated/Temp., control]) as described by Cooper, B. R., J. L. Howard, and F. E. Soroko, Animal models used in prediction of antidepressant effects in man, Journal of Clinical Psychiatry 44:63-6, 1983). 50% effective dose (ED50) values indicate a dose of compound with ‘antitetrabenazine activity’ at which the composite index, X, induced by 20 mg/kg of tetrabenazine intraperitoneally is reduced 50%.
# Prevention of tetrabenazine-induced behavioral effects were measured using a modification of the method of Vernier et al., First Hahnemann Symposium on Psychosomatic Medicine, ed. Nodim and Moyer, pub Lea and Febiger, Philadelphia 1962 as described previously (Cooper, B. R., J. L. Howard, and F. E. Soroko, Animal models used in prediction of antidepressant effects in man, Journal of Clinical Psychiatry 44:63-6, 1983). Mice, groups of 12 CD1 males each, were injected intraperitoneally (i.p.) with the compounds (1420), (20a) and furosemide (10) suspended in a 0.5% 4000-centipoise methyl cellulose solution at 3 mg/mL or vehicle. All injections were administered at a vehicle volume of 10 ml/kg. The 50% effective dose (ED50) of each compound was determined by linear regression analysis of log probit plots of dose effect curves and is reported in Table 3: […]
# [2] = CD1 male mice, i.p., dose at which composite index X induced by 20 mg/kg tetrabenazine i.p. is reduced 50%
Compound,"serious adverse events (seizures and deaths) (Mice, CD1 males)","inhibition of tetrabenazine-induced behavioral effects ([1]; CD1 male mice, i.p.)","ED50 [1, 2] [mg/kg]",ED50 [1] [mg/kg]
"C[C@@H]1CO[C@@](O)(c2cc(F)cc(F)c2)[C@H](C)N1C(=O)OCOC(=O)c1cc(S(N)(=O)=O)c(Cl)cc1NCc1ccco1 [compound 1420, (2S,3S,5R)-4-[5-(aminosulfonyl)-4-chloro-2-[(2-furanylmethyl)amino]benzoyloxymethoxycarbonyl]-2-(3,5-difluorophenyl)-3,5-dimethyl-2-morpholinol]",No seizures or deaths were observed in any animals at any dose,inhibited tetrabenazine-induced behavioral effects,3.6,–
"NS(=O)(=O)c1cc(C(=O)O)c(NCc2ccco2)cc1Cl [furosemide, 5-(aminosulfonyl)-4-chloro-2-[(2-furanylmethyl)amino]benzoic acid]",–,–,> 30,–
"C[C@@H]1CO[C@@](O)(c2cc(F)cc(F)c2)[C@H](C)N1 [20a, (2S,3S,5R)-2-(3,5-difluorophenyl)-2-hydroxy-3,5-dimethylmorpholine]",–,inhibited tetrabenazine-induced behavioral effects,–,0.2
